Source: patent US20210059997A1, “PROPHYLACTIC AGENT AND/OR THERAPEUTIC AGENT FOR CATARACT, MEDICINAL COMPOSITION FOR PREVENTING AND/OR TREATING CATARACT, USE OF PPAR ACTIVATOR FOR PRODUCING SAME, AND EYEDROPS” (UNIVERSITY OF FUKUI, priority 2017, published 2021)

Columns and labels:
Parameters in all cases: species or system SD rat
[1] = tested on: isolated crystalline lenses; assay: Ex vivo study: ex-vivo diabetic cataract models using galactose-containing media (microscopy); details: 800 μM PPAR activator added after 3 days in 30 mM galactose M199 medium; observed 3 days after restart of culture (Day 6)
Method: In Example 1, effects of each agent were tested with use of ex-vivo diabetic cataract models using galactose-containing media.
(§1) The crystalline lenses were isolated from the right and left eyeballs of a 6-week-old SD rat (available from Sankyo Labo Service Corporation).
The isolated crystalline lenses were cultured with use of a medium obtained by adding 30 mM of galactose to an M199 medium (available from SIGMA). After that, the crystalline lenses were cultured with use of a medium obtained by adding 30 mM of galactose and 800 μM of a PPAR activator (specifically, bezafibrate or fenofibrate) to an M199 medium.
(§2) Specific points in time at which observation was carried out are as follows. Note that the crystalline lenses were cultured with use of an incubator, the internal temperature of which was maintained at 37° C.
First, 3 days after the start of the culture of the crystalline lenses using the medium obtained by adding 30 mM of galactose to an M199 medium (available from SIGMA), the crystalline lenses were removed from the medium and observed by microscopy under a SZX12 microscope (available from Olympas).
After the microscopy, a PPAR activator was added to the medium, and the culture of the crystalline lenses was restarted. […]

[2] = tested on: isolated crystalline lenses; assay: Quantitative ex vivo study: ex-vivo diabetic cataract models using galactose-containing media, percentage of opacity by image analysis; details: for Percentage of opacity of crystalline lens, Day 6: Day 6 = 3 days after restart of culture with 30 mM galactose and PPAR activator; for Percentage of opacity of crystalline lens, Day 3: Day 3 = 3 days in 30 mM galactose medium, before addition of PPAR activator; for effect on the percentage of opacity of the crystalline lens (conclusion from Table 1): ex vivo, low concentration
Method: In Example 2, effects of each agent were tested with use of ex-vivo diabetic cataract models using galactose-containing media, in a similar manner to Example 1.
as §1
The isolated crystalline lenses were cultured with use of a medium obtained by adding 30 mM of galactose to an M199 medium (available from SIGMA). After that, the crystalline lenses were cultured with use of a medium obtained by adding 30 mM of galactose and a PPAR activator to an M199 medium.
as §2
First, 3 days after the start of the culture of the crystalline lenses using the medium obtained by adding 30 mM of galactose to an M199 medium (available from SIGMA), the crystalline lenses were removed from the medium and observed by microscopy under a microscope SZX12 (available from Olympas).
After the microscopy, a PPAR activator was added to the medium, and the culture of the crystalline lenses was restarted. 3 days after the restart of the culture, the crystalline lenses were removed from the medium and observed again by microscopy under the microscope SZX12 (available from Olympas). Note that, for the purpose of clarifying the effects of the PPAR activator, control crystalline lenses were cultured again using a medium having no PPAR activators added thereto.
The images obtained by the microscopy were imported into image processing software (Image J), and the number of pixels was analyzed. In this way, the total area of the crystalline lens and the area of the opaque area were calculated. The percentage of opacity of the crystalline lens was calculated using the following equation.
Percentage of opacity of crystalline lens (%)=100×{(area of opaque area of crystalline lens)/(total area of crystalline lens)}

[3] = tested on: in-vivo diabetic cataract models raised on galactose feed; assay: In vivo study: in-vivo diabetic cataract models raised on galactose feed, instillation to the eye; details: for Percentage of opacity of crystalline lens, Left eye: instillation to left eye four times a day for 1 week, feed containing 25% galactose; for effect on the area of the opaque area of the crystalline lens in vivo (conclusion from Table 2): left eye versus DMSO right eye
Method: In Example 3, effects of each agent were tested with use of in-vivo diabetic cataract models raised on galactose feed.
For the purpose of inducing cataract, a 3-week-old SD rat (available from Sankyo Labo Service Corporation) was raised for 1 week on feed containing 25% galactose. Concurrently, during the feeding period, ophthalmic agents were administered by instillation to both eyes of the rat every day (four times a day). The components of the ophthalmic agents were as follows: dimethyl sulfoxide (DMSO; administered as a control) for the right eye; and DMSO containing a PPAR activator for the left eye. On the last day of the feeding period, the crystalline lenses were isolated from the right and left eyes of the rat, and observed by microscopy.
The type of PPAR activator administered to the left eye and its concentration in Example 3 are as follows.
The total area of the crystalline lens, the area of the opaque area of the crystalline lens, and the percentage of opacity of the crystalline lens were calculated in the same manner as described in Example 2.

| Compound | Percentage of opacity of crystalline lens, Day 6 ([2]; 25 μM) [%] | Percentage of opacity of crystalline lens, Day 6 ([2]; 100 μM) [%] | effect on the percentage of opacity of the crystalline lens (conclusion from Table 1) [2] | Percentage of opacity of crystalline lens, Day 3 ([2]; lens later given 25 μM) [%] | Percentage of opacity of crystalline lens, Day 3 ([2]; lens later given 100 μM) [%] | Percentage of opacity of crystalline lens, Left eye ([3]; 200 mM in DMSO) [%] | effect on the area of the opaque area of the crystalline lens in vivo (conclusion from Table 2) ([3]; 200 mM in DMSO) | other results |
| --- | --- | --- | --- | --- | --- | --- | --- | --- |
| CC(C)(Oc1ccc(CCNC(=O)c2ccc(Cl)cc2)cc1)C(=O)O [Bezafibrate, 2-[4-[2-[(4-chlorobenzoyl)amino]ethyl]phenoxy]-2-methylpropanoic acid] | – | – | – | – | – | – | – | effect on opacity of the cortex of the crystalline lens (microscopy) [1]: have the effect of therapeutic treatment of cataract after its development; Percentage of opacity of crystalline lens, Day 6 ([2]; 200 μM): 28.0%; Percentage of opacity of crystalline lens, Day 3 ([2]; lens later given 200 μM): 27.1% |
| CC(C)(Oc1ccc(C2CC2(Cl)Cl)cc1)C(=O)O (stereo not drawn) [Ciprofibrate, 2-[4-(2,2-dichlorocyclopropyl)phenoxy]-2-methylpropanoic acid] | 15.7 | 2.0 | have the effect of reducing the percentage of opacity of the crystalline lens even when used at low concentration | 17.5 | 16.7 | 30.2 | have the effect of reducing the area of the opaque area of the crystalline lens in vivo | – |
| CCOC(=O)C(C)(C)Oc1ccc(Cl)cc1 [Clofibrate, ethyl 2-(4-chlorophenoxy)-2-methylpropanoate] | 27.3 | 5.7 | – | 9.7 | 7.6 | – | – | – |
| CC(C)(Oc1ccc(Cl)cc1)C(=O)OCCOC(=O)c1cccnc1 [Etofibrate, 2-[2-(4-chlorophenoxy)-2-methylpropanoyl]oxyethyl pyridine-3-carboxylate] | 25.2 | 3.2 | – | 16.8 | 11.4 | – | – | Percentage of opacity of crystalline lens, Left eye ([3]; 140 mM in DMSO): 42.8% |
| CC(C)OC(=O)C(C)(C)Oc1ccc(C(=O)c2ccc(Cl)cc2)cc1 [Fenofibrate, propan-2-yl 2-[4-(4-chlorobenzoyl)phenoxy]-2-methylpropanoate] | – | – | – | – | – | – | – | effect on opacity of the cortex of the crystalline lens (microscopy) [1]: have the effect of therapeutic treatment of cataract after its development |
| Cc1ccc(C)c(OCCCC(C)(C)C(=O)O)c1 [Gemfibrozil, 5-(2,5-dimethylphenoxy)-2,2-dimethylpentanoicacid] | 8.2 | – | have the effect of reducing the percentage of opacity of the crystalline lens even when used at low concentration | 13.8 | – | 40.4 | have the effect of reducing the area of the opaque area of the crystalline lens in vivo | Percentage of opacity of crystalline lens, Day 6 ([2]; 0.8 μM): 10.3%; Percentage of opacity of crystalline lens, Day 3 ([2]; lens later given 0.8 μM): 15.4% |
| CCc1ccc(CCOc2ccc(CC3SC(=O)NC3=O)cc2)nc1 (stereo not drawn) [Pioglitazone, 5-[[4-[2-(5-ethylpyridin-2-yl)ethoxy]phenyl]methyl]-1,3-thiazolidine-2,4-dione] | – | – | – | – | – | 44.2 | did not show the effect of reducing the area of the opaque area of the crystalline lens in vivo | – |
| CN(CCOc1ccc(CC2SC(=O)NC2=O)cc1)c1ccccn1 (stereo not drawn) [Rosiglitazone, 5-[[4-[2-[methyl(pyridin-2-yl)amino]ethoxy]phenyl]methyl]-1,3-thiazolidine-2,4-dione] | – | – | have the effect of reducing the percentage of opacity of the crystalline lens even when used at low concentration | – | – | 30.6 | have the effect of reducing the area of the opaque area of the crystalline lens in vivo | Percentage of opacity of crystalline lens, Day 6 ([2]; 20 μM): 20.9%; Percentage of opacity of crystalline lens, Day 6 ([2]; 80 μM): 2.2%; Percentage of opacity of crystalline lens, Day 3 ([2]; lens later given 20 μM): 22.8%; Percentage of opacity of crystalline lens, Day 3 ([2]; lens later given 80 μM): 15.6% |
